From the NIST ThermoML archive (doi:10.1021/je700577t)
± gives the expanded uncertainty stated by the source.

Columns and labels:
[1] = 101.33 kPa, Liquid
[2] = refractive index (Na D-line) (dimensionless); conditions: 101.33 kPa, Liquid, Standard Abbe refractometry

mass density ([1]; 293.15 K) [kg/m3] | refractive index ([2]; 293.15 K) | mass density ([1]; 288 K) [kg/m3] | mass density ([1]; 294 K) [kg/m3] | refractive index ([2]; 292 K) | Structure (SMILES)
1115.52 ± 0.71 | 1.43184 ± 0.0007 | – | – | – | OCCO [1,2-ethanediol]
– | 1.46272 ± 0.0009 | 870.04 ± 2.7 | – | – | C=CC(C)(O)CCC=C(C)C (configuration not stated) [3,7-dimethyl-1,6-octadien-3-ol]
1032.83 ± 0.48 | 1.43143 ± 0.0007 | – | – | – | CC(O)CO (configuration not stated) [1,2-propanediol]
– | – | – | 840.24 ± 2.8 | 1.47247 ± 0.0009 | C=C(C)C1CC=C(C)CC1 (configuration not stated) [1-methyl-4-(1-methylethenyl)cyclohexene]
– | 1.45314 ± 0.0007 | 1127.43 ± 0.74 | – | – | OCCOCCOCCO [triethylene glycol]

Structure (SMILES) | mass density ([1]; 293.15 K) [kg/m3] | refractive index ([2]; 293.15 K) | mass density ([1]; 288 K) [kg/m3] | mass density ([1]; 294 K) [kg/m3] | refractive index ([2]; 292 K)
OCCOCCO [diethylene glycol] | – | 1.44724 ± 0.0007 | 1119.74 ± 0.72 | – | –
